What was measured:
human Nav1.8 = human Nav1.8 (Homo sapiens (Human), UniProt Q9Y5Y9); test: FRET-based membrane potential assay, recombinant human sodium channel Nav1.8; type: cell-based; conditions: HEK293 cells stably expressing recombinant human Nav1.8; depolarization with veratridine (EC80) + scorpion venom
Outline: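 HEK293 cells stably expressing Nav1.8 were loaded with CC2-DMPE/DiSBAC2(3) FRET voltage dyes. Compounds were added 3 min before depolarization with EC80 veratridine plus scorpion venom. The F440-480/F565-625 ratio was read on FLIPR; IC50 came from four-parameter Hill fits.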

human Nav1.7 = human Nav1.7 (Homo sapiens (Human), UniProt Q15858); test: FRET-based membrane potential assay, recombinant human sodium channel Nav1.7; type: cell-based; conditions: HEK293 cells stably expressing recombinant human Nav1.7; depolarization with veratridine (EC80) + scorpion venom
Chain of human Nav1.7 (Q15858 whole entry): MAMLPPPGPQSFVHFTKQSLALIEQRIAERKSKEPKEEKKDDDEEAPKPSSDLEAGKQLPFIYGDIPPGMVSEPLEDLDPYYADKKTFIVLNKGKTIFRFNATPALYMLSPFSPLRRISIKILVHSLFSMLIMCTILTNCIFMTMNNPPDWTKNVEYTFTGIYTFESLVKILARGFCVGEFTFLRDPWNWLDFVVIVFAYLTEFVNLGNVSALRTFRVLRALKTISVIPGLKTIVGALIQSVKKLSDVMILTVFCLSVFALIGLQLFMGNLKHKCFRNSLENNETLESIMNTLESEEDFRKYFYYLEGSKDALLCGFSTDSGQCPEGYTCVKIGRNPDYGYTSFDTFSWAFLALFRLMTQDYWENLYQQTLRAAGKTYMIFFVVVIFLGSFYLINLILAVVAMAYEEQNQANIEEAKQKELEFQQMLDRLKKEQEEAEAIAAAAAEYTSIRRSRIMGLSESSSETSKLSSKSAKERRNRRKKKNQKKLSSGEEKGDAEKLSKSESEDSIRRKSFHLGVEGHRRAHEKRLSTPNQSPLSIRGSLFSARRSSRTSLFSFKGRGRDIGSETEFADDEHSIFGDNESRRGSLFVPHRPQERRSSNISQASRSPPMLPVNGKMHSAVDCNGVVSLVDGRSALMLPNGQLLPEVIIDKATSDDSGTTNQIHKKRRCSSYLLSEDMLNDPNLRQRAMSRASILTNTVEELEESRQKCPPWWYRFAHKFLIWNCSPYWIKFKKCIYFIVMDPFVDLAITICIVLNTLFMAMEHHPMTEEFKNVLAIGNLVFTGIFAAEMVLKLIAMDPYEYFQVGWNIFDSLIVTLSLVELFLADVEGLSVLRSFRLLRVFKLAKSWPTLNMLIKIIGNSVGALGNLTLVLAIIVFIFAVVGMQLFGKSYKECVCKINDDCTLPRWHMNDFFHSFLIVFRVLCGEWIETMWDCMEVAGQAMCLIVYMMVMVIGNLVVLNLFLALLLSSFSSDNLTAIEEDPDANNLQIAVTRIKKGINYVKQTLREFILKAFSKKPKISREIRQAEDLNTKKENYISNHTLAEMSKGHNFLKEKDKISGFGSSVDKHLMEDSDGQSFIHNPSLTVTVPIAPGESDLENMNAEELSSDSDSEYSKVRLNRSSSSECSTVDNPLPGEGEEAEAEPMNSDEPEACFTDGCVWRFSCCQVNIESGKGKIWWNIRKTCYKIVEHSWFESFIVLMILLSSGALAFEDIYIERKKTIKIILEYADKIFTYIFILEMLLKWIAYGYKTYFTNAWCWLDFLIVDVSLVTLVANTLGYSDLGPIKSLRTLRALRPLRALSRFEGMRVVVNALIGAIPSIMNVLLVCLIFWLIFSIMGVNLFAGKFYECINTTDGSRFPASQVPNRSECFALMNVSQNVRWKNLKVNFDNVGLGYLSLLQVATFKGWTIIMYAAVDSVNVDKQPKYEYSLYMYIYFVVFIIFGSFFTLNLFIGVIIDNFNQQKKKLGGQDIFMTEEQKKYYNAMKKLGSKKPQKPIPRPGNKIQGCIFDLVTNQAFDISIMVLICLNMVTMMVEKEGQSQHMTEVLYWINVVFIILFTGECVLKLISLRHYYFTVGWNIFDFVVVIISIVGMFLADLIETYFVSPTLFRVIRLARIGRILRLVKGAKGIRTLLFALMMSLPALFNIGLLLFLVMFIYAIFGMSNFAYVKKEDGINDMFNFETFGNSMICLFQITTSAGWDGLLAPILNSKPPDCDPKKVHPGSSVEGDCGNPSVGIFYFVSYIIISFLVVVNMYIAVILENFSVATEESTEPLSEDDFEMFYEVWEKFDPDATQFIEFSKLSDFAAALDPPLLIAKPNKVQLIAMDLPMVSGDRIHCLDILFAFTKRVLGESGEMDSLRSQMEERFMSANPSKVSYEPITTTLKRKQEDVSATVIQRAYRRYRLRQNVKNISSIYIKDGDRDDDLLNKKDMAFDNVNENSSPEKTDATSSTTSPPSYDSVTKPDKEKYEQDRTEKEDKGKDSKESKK
Outline: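 IC50 derived by four-parameter Hill fit of percent inhibition of depolarization, measured as peak F440-480/F565-625 ratio over baseline. Stable human Nav1.7 HEK293 cells, dye-loaded with CC2-DMPE and DiSBAC2(3)/VABSC-1 at room temperature, received compound 3 min ahead of veratridine (EC80) plus scorpion venom.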

[1] = test system: MIA-induced osteoarthritic pain in rats; test: Osteoarthritic (OA) pain induced by sodium monoiodoacetate (MIA), hind limb grip force; type: in vivo, rat; conditions: male Sprague Dawley rats, grip force 20 days after MIA injection
Method: Osteoarthritic (OA) Pain Induced by Sodium Monoiodoacetate (MIA)
Pain behavior was assessed by measurement of hind limb grip force (GF) in adult osteoarthritic rats. Male Sprague Dawley rats, obtained from Charles River Laboratories, (Wilmington, Mass.), weighing 150-175 g, were injected in the unilateral knee join with a single intra-articular injection of sodium monoiodoacetate (MIA, 3 mg/rat). All rats were tested at 20 days following MIA injection. A behavioral measure of activity-induced pain was carried out. Measurements of the peak hind limb grip force were conducted by recording the maximum compressive force (CFmax), in grams of force, exerted on a hind limb strain gauge setup, in a commercially available grip force measurement system (Columbus Instruments, Columbus, Ohio).
During testing, each rat was gently restrained by grasping it around its rib cage and then allowed to grasp the wire mesh frame attached to the strain gauge. The experimenter then moved the animal in a rostral-to-caudal direction until the grip was broken. Each rat was sequentially tested twice at an approximately 2-3 minute interval to obtain a raw mean grip force (CFmax). This raw mean grip force data was in turn converted to a maximum hindlimb cumulative compressive force (CFmax), as the grams of force/kg of body weight, for each animal.
For evaluating the compound effects, the hind limb grip force was conducted 20 days following the intra-articular injection of MIA. A group of age-matched nave (not injected with MIA) animals was added as a comparator to the drug-dosed groups. The vehicle control response for each group of MIA-treated animals was defined as the 0% response (0% effect), whereas the nave control group was defined as the normal response and as 100% effect. The % effect for each dose group was expressed as % return of response to normalcy, compared to the nave group. A percent maximal possible effect (% MPE) of testing compound was calculated according to the formula: (Treatment CFmax−Vehicle CFmax)/Vehicle CFmax]×100). Higher % effect numbers indicate increased relief from the pain in the model, with 100% indicating a return to the level of response seen in normal (non-osteoarthritic) animals. All experiments evaluating drug effects in this model were conducted in a randomized blinded fashion.
The animals were housed in Association for Assessment and Accreditation of Laboratory Animal Care (AAALAC) approved facilities at AbbVie Inc. in a temperature-regulated environment under a controlled 12-hour light-dark cycle, with lights on at 6:00 a.m. Food and water were available ad libitum at all times except during testing. All testing was done following procedures outlined in protocols approved by AbbVie Inc.'s Institutional Animal Care and Use Committee.

Chain of human Nav1.8 (Q9Y5Y9 whole entry): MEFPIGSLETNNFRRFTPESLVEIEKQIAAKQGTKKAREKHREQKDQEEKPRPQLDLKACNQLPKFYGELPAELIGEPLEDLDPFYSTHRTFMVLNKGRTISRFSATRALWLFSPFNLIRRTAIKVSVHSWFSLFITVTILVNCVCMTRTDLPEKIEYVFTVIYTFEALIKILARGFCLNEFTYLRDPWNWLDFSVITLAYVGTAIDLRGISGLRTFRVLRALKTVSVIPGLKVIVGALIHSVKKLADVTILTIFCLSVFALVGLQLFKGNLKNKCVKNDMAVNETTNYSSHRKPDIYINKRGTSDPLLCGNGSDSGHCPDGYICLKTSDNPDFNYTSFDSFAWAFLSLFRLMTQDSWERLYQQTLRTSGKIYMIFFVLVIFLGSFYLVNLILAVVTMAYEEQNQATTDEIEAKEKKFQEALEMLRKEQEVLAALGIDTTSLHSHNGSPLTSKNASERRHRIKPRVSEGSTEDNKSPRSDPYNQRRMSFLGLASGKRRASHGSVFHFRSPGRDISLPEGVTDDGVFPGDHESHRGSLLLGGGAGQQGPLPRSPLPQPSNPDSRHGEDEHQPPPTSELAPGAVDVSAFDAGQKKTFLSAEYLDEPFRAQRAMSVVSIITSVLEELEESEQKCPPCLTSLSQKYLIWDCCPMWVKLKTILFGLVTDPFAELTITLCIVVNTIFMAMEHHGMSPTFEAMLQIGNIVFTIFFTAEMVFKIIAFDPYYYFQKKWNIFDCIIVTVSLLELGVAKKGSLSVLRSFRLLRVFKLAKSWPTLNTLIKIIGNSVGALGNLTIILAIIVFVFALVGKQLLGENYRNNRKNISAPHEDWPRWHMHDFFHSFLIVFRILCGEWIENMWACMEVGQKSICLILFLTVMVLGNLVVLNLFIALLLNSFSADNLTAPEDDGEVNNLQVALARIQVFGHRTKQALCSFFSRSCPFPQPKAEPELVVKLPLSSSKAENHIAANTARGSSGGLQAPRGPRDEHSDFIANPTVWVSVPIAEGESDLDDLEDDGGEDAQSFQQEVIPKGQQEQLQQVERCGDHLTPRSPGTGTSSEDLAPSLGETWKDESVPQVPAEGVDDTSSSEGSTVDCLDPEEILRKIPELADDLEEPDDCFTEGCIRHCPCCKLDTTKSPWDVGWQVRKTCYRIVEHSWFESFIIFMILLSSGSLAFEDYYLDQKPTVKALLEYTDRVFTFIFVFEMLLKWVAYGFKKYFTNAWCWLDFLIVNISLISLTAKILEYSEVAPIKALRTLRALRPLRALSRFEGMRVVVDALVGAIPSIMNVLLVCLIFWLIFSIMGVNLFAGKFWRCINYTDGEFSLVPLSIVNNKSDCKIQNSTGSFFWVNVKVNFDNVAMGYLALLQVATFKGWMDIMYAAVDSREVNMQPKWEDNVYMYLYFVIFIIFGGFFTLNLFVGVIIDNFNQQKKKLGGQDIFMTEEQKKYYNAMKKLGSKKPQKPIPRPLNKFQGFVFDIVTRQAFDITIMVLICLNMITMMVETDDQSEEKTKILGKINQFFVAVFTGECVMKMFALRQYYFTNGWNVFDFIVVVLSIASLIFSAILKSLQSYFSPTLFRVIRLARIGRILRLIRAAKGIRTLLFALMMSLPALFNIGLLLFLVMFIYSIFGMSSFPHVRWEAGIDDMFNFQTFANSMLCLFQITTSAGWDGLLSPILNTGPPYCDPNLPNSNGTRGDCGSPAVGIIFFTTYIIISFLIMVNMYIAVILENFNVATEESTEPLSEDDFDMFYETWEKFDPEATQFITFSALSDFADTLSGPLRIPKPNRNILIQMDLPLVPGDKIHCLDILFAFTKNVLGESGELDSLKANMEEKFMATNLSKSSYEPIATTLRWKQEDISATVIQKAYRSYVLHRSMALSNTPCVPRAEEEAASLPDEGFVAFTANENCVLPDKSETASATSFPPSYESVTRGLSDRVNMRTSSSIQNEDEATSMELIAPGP

| SMILES | IC50 (human Nav1.8) [µM] | IC50 (human Nav1.7) [µM] | OA MPE (%) ([1]; OA dose 10 mg/kg) | OA MPE (%) ([1]; OA dose 30 mg/kg) |
| --- | --- | --- | --- | --- |
| CCOc1nnc(CN2CCN(c3cccc4c3cnn4-c3ccccc3F)C2=O)s1 [Example 47, 1-[(5-ethoxy-1,3,4-thiadiazol-2-yl)methyl]-3-[1-(2-fluorophenyl)-1H-indazol-4-yl]imidazolidin-2-one] | 3.98 | 1.49 | 19 | – |
| O=C1N(Cc2nnc(C3CC3)o2)CCN1c1cccc2c1cnn2-c1ccccc1F [Example 49, 1-[(5-cyclopropyl-1,3,4-oxadiazol-2-yl)methyl]-3-[1-(2-fluorophenyl)-1H-indazol-4-yl]imidazolidin-2-one] | 0.538 | 2.32 | 66 | – |
| O=C1N(CC(=O)N2C[C@H]3C[C@@H]2CO3)CCN1c1cccc2c1cnn2-c1ccccc1F [Example 25, 1-[1-(2-fluorophenyl)-1H-indazol-4-yl]-3-{2-[(1R,4R)-2-oxa-5-azabicyclo[2.2.1]hept-5-yl]-2-oxoethyl}imidazolidin-2-one] | 8.51 | 0.499 | 24 | – |
| CC1(NC(=O)CN2CCN(c3cccc4c3cnn4-c3ccccc3F)C2=O)CC1 [Example 333, 2-{3-[1-(2-fluorophenyl)-1H-indazol-4-yl]-2-oxoimidazolidin-1-yl}-N-(1-methylcyclopropyl)acetamide] | 4.76 | 2.41 | – | 86 |
| O=C(CN1CCN(c2cccc3c2cnn3-c2ccccc2F)C1=O)N1CCC[C@@H](O)C1 [Example 52, 1-[1-(2-fluorophenyl)-1H-indazol-4-yl]-3-{2-[(3R)-3-hydroxypiperidin-1-yl]-2-oxoethyl}imidazolidin-2-one] | 10.1 | 2.49 | – | 27 |
| O=C1N(c2cccc3c2cnn3-c2ccccc2F)CCN1[C@@H]1CCOC1 [Example 32, 1-[1-(2-fluorophenyl)-1H-indazol-4-yl]-3-[(3R)-tetrahydrofuran-3-yl]imidazolidin-2-one] | 2.54 | 4.23 | – | 65 |
| O=C(CN1CCN(c2cccc3c2cnn3-c2ccccc2F)C1=O)NC1(CO)CCC1 [Example 316, 2-{3-[1-(2-fluorophenyl)-1H-indazol-4-yl]-2-oxoimidazolidin-1-yl}-N-[1-(hydroxymethyl)cyclobutyl]acetamide] | 1.65 | 3.11 | – | 63 |
| CCS(=O)(=O)N1CC(N2CCN(c3cccc4c3cnn4-c3ccccc3F)C2=O)C1 [Example 51, 1-[1-(ethylsulfonyl)azetidin-3-yl]-3-[1-(2-fluorophenyl)-1H-indazol-4-yl]imidazolidin-2-one] | 1.14 | 3.1 | – | 16 |
| O=C1N(Cc2nnc(C3CCC3)o2)CCN1c1cccc2c1cnn2-c1ccccc1F [Example 50, 1-[(5-cyclobutyl-1,3,4-oxadiazol-2-yl)methyl]-3-[1-(2-fluorophenyl)-1H-indazol-4-yl]imidazolidin-2-one] | 3.08 | 1.53 | 7 | – |
| Cc1nnc(CN2CCN(c3cccc4c3cnn4-c3ccccc3F)C2=O)o1 [Example 44, 1-[1-(2-fluorophenyl)-1H-indazol-4-yl]-3-[(5-methyl-1,3,4-oxadiazol-2-yl)methyl]imidazolidin-2-one] | – | 2.94 | – | 71 |
| O=C(CN1CCN(c2cccc3c2cnn3-c2ccccc2)C1=O)N1CC[C@H](F)C1 [Example 307, 1-{2-[(3S)-3-fluoropyrrolidin-1-yl]-2-oxoethyl}-3-(1-phenyl-1H-indazol-4-yl)imidazolidin-2-one] | 1.42 | 0.52 | – | 62 |
| CCC1(O)CN(C(=O)CN2CCN(c3cccc4c3cnn4-c3ccccc3F)C2=O)C1 [Example 205, 1-[2-(3-ethyl-3-hydroxyazetidin-1-yl)-2-oxoethyl]-3-[1-(2-fluorophenyl)-1H-indazol-4-yl]imidazolidin-2-one] | 1.5 | 0.778 | – | 46 |
| Cc1cccc(-n2ncc3c(N4CCN(CC(=O)N5CC[C@H](F)C5)C4=O)cccc32)c1 [Example 56, 1-{2-[(3S)-3-fluoropyrrolidin-1-yl]-2-oxoethyl}-3-[1-(3-methylphenyl)-1H-indazol-4-yl]imidazolidin-2-one] | 4.63 | 1.83 | – | 70 |
| O=C1N(c2cccnc2)CCN1c1cccc2c1cnn2-c1ccccc1F [Example 19, 1-[1-(2-fluorophenyl)-1H-indazol-4-yl]-3-(pyridin-3-yl)imidazolidin-2-one] | – | 2.92 | 67 | – |
| CC(C)(C)C(O)CN1CCN(c2cccc3c2cnn3-c2ccccc2F)C1=O (centres unmarked) [Example 22, 1-[1-(2-fluorophenyl)-1H-indazol-4-yl]-3-(2-hydroxy-3,3-dimethylbutyl)imidazolidin-2-one] | – | 3 | – | 38 |
| Cc1nc(CN2CCCN(c3cccc4c3cnn4-c3ccccc3F)C2=O)oc1C [Example 48, 1-[(4,5-dimethyl-1,3-oxazol-2-yl)methyl]-3-[1-(2-fluorophenyl)-1H-indazol-4-yl]tetrahydropyrimidin-2(1H)-one] | 1.14 | 2.01 | 20 | – |
| O=C1N(Cc2cscn2)CCN1c1cccc2c1cnn2-c1ccccc1F [Example 39, 1-[1-(2-fluorophenyl)-1H-indazol-4-yl]-3-(1,3-thiazol-4-ylmethyl)imidazolidin-2-one] | – | 0.301 | 38 | – |
| O=C1N(Cc2nccs2)CCN1c1cccc2c1cnn2-c1ccccc1F [Example 34, 1-[1-(2-fluorophenyl)-1H-indazol-4-yl]-3-(1,3-thiazol-2-ylmethyl)imidazolidin-2-one] | – | 0.42 | 43 | – |
| Cc1cnc(N2CCN(c3cccc4c3cnn4-c3ccccc3F)C2=O)nc1 [Example 33, 1-[1-(2-fluorophenyl)-1H-indazol-4-yl]-3-(5-methylpyrimidin-2-yl)imidazolidin-2-one] | – | 0.624 | 17 | – |
| O=C1N(c2ncccn2)CCN1c1cccc2c1cnn2-c1ccccc1F [Example 28, 1-[1-(2-fluorophenyl)-1H-indazol-4-yl]-3-(pyrimidin-2-yl)imidazolidin-2-one] | – | 0.457 | 62 | – |

Reference: patent publication US9783527B2, “Indazole ureas and method of use” (AbbVie Inc., priority 2014, dated 2017)
